In US9073855B2, “BCL-2 selective apoptosis-inducing agents for the treatment of cancer and immune diseases” (AbbVie Inc., priority 2008, dated 2015):

Columns and labels:
GST-Bcl-2 = GST-Bcl-2 (Homo sapiens, UniProt P10415); test: TR-FRET binding assay, GST-Bcl-2 with F-Bak peptide probe; details: TR-FRET Binding Affinity, GST-Bcl-2, F-Bak peptide probe
How it was run: (§1)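 Competitive TR-FRET: GST-fusion protein, fluorescent Bak peptide probe and Tb-labelled anti-GST antibody incubated with compound dilution series (starting 50 μM as 2× stock, 10% DMSO) for 3 h at RT. Excitation 340/35 nm; Ki derived via Wang's exact competitive-binding equation.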

GST-Bcl-XL = GST-Bcl-XL (Homo sapiens, UniProt Q07817); test: TR-FRET binding assay, GST-Bcl-XL with F-Bak peptide probe; details: TR-FRET Binding Affinity, GST-Bcl-XL, F-Bak peptide probe
Chain of GST-Bcl-XL (Q07817 whole entry): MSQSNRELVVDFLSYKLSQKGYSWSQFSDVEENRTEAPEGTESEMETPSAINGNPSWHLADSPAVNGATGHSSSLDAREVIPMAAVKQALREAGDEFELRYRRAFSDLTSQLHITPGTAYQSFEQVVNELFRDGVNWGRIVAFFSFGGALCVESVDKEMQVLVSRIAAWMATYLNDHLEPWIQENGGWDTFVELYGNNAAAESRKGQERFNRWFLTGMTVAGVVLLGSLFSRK
How it was run: as §1

Canine platelets = test: Platelet cell viability assay (platelet-rich plasma, Cell Titer Glo); type: cell-based; details: Canis lupus familiaris, 5 h, isolated canine platelets ex vivo, five hours at 37° C.
How it was run: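 Isolated canine platelets were incubated ex vivo with a range of compound concentrations. After 20 min equilibration at room temperature, viability was measured by Cell Titer Glo luminescence.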

FL5.12/Bcl-2 cells = test: FL5.12/Bcl-2 cell viability assay under IL-3 withdrawal (CellTitre Glo); type: cell-based, murine; details: Mus musculus, IL-3 withdrawn 48 hrs, then 24 hrs with compound
How it was run: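 Viability measured with CellTiter-Glo after 24 h compound treatment at various concentrations, following 48 h IL-3 withdrawal (no WEHI-3B medium). Cells: prolymphocytic mouse FL5.12 line stably transfected to overexpress Bcl-2, cultured at 37 °C, 5% CO2.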

Chain of GST-Bcl-2 (P10415 whole entry, the tested form may be a part): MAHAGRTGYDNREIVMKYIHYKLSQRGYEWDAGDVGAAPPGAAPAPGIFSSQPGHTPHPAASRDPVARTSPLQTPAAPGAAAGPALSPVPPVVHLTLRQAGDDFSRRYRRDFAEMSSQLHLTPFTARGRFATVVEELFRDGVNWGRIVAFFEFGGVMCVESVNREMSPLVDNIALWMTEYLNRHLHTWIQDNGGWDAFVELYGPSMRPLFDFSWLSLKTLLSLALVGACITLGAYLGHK

SMILES | Ki (GST-Bcl-2) | Ki (GST-Bcl-XL) | EC50 (Canine platelets) | EC50 (FL5.12/Bcl-2 cells)
CC1(C)CCC(CN2CCN(c3ccc(C(=O)NS(=O)(=O)c4ccc(NCCCN5CCCC5)c([N+](=O)[O-])c4)c(Oc4cccc5[nH]ccc45)c3)CC2)=C(c2ccc(C(F)(F)F)cc2)C1 [Example 69, 4-[4-({4,4-dimethyl-2-[4-(trifluoromethyl)phenyl]cyclohex-1-en-1-yl}methyl)piperazin-1-yl]-2-(1H-indol-4-yloxy)-N-({3-nitro-4-[(3-pyrrolidin-1-ylpropyl)amino]phenyl}sulfonyl)benzamide] | 1.25 nM | 92.1 nM | > 50000 nM | 75 nM
CC1(C)CCC(CN2CCN(c3ccc(C(=O)NS(=O)(=O)c4ccc(NCCCN5CCCC5)c([N+](=O)[O-])c4)c(Oc4cccc5[nH]ccc45)c3)CC2)=C(c2cccc(C(F)(F)F)c2)C1 [Example 71, 4-[4-({4,4-dimethyl-2-[3-(trifluoromethyl)phenyl]cyclohex-1-en-1-yl}methyl)piperazin-1-yl]-2-(1H-indol-4-yloxy)-N-({3-nitro-4-[(3-pyrrolidin-1-ylpropyl)amino]phenyl}sulfonyl)benzamide] | 6.23 nM | > 660 nM | > 50000 nM | 460 nM
O=C(NS(=O)(=O)c1ccc(NCC2CCOCC2)c([N+](=O)[O-])c1)c1ccc(N2CCN(Cc3ccccc3-c3ccc(Cl)cc3)CC2)cc1Oc1cccc2[nH]ccc12 [Example 45, 4-{4-[(4′-chloro-1,1′-biphenyl-2-yl)methyl]piperazin-1-yl}-2-(1H-indol-4-yloxy)-N-({3-nitro-4-[(tetrahydro-2H-pyran-4-ylmethyl)amino]phenyl}sulfonyl)benzamide] | 0.828 nM | > 660 nM | > 50000 nM | 139 nM
O=C(NS(=O)(=O)c1ccc(NCCCN2CCCC2)c([N+](=O)[O-])c1)c1ccc(N2CCN(CC3=C(c4ccc(Cl)cc4)CCCCC3)CC2)cc1Oc1cccc2[nH]ccc12 [Example 141, 4-(4-{[2-(4-chlorophenyl)cyclohept-1-en-1-yl]methyl}piperazin-1-yl)-2-(1H-indol-4-yloxy)-N-({3-nitro-4-[(3-pyrrolidin-1-ylpropyl)amino]phenyl}sulfonyl)benzamide] | 0.673 nM | 28.6 nM | > 50000 nM | 76 nM
O=C(NS(=O)(=O)c1ccc(NCC2CCOCC2)c([N+](=O)[O-])c1)c1ccc(N2CCN(Cc3cc(OCCN4CCCC4)ccc3-c3ccc(Cl)cc3)CC2)cc1Oc1ccccc1 [Example 138, 4-(4-{[4′-chloro-4-(2-pyrrolidin-1-ylethoxy)-1,1′-biphenyl-2-yl]methyl}piperazin-1-yl)-N-({3-nitro-4-[(tetrahydro-2H-pyran-4-ylmethyl)amino]phenyl}sulfonyl)-2-phenoxybenzamide] | 0.009 nM | 5.17 nM | 17800 nM | 29 nM
O=C(NS(=O)(=O)c1ccc(NCCCN2CCCC2)c([N+](=O)[O-])c1)c1ccc(N2CCN(CC3=C(c4ccc(Cl)cc4)CCC3)CC2)cc1Oc1cccc2[nH]ccc12 [Example 143, 4-(4-{[2-(4-chlorophenyl)cyclopent-1-en-1-yl]methyl}piperazin-1-yl)-2-(1H-indol-4-yloxy)-N-({3-nitro-4-[(3-pyrrolidin-1-ylpropyl)amino]phenyl}sulfonyl)benzamide] | 2.23 nM | 75.4 nM | > 50000 nM | 199 nM
CN(C)CCOc1ccc(-c2ccc(Cl)cc2)c(CN2CCN(c3ccc(C(=O)NS(=O)(=O)c4ccc(NCC5CCOCC5)c([N+](=O)[O-])c4)c(Oc4ccc5[nH]ccc5c4)c3)CC2)c1 [Example 126, 4-[4-({4′-chloro-4-[2-(dimethylamino)ethoxy]-1,1′-biphenyl-2-yl}methyl)piperazin-1-yl]-2-(1H-indol-5-yloxy)-N-({3-nitro-4-[(tetrahydro-2H-pyran-4-ylmethyl)amino]phenyl}sulfonyl)benzamide] | 0.012 nM | 163 nM | > 50000 nM | 31 nM
CC1(C)CCC(CN2CCN(c3ccc(C(=O)NS(=O)(=O)c4ccc(NCCCN5CCOCC5)c([N+](=O)[O-])c4)c(Oc4cccc5[nH]ccc45)c3)CC2)=C(c2ccc(Cl)cc2)C1 [Example 55, 4-(4-{[2-(4-chlorophenyl)-4,4-dimethylcyclohex-1-en-1-yl]methyl}piperazin-1-yl)-2-(1H-indol-4-yloxy)-N-({4-[(3-morpholin-4-ylpropyl)amino]-3-nitrophenyl}sulfonyl)benzamide] | 0.196 nM | 24.9 nM | 36000 nM | 22 nM
CN(C)CCCNc1ccc(S(=O)(=O)NC(=O)c2ccc(N3CCN(CC4=C(c5ccc(Cl)cc5)CC(C)(C)CC4)CC3)cc2Oc2ccc3[nH]ccc3c2)cc1C(F)(F)F [Example 171, 4-(4-{[2-(4-chlorophenyl)-4,4-dimethylcyclohex-1-en-1-yl]methyl}piperazin-1-yl)-N-{[4-{[3-(dimethylamino)propyl]amino}-3-(trifluoromethyl)phenyl]sulfonyl}-2-(1H-indol-5-yloxy)benzamide] | 2.94 nM | 52.1 nM | > 50000 nM | 276 nM
CC1(C)CCC(CN2CCN(c3ccc(C(=O)NS(=O)(=O)c4ccc(NC5CCN(C6CCOCC6)CC5)c([N+](=O)[O-])c4)c(Oc4ccc5[nH]ccc5c4)c3)CC2)=C(c2ccc(Cl)cc2)C1 [Example 173, 4-(4-{[2-(4-chlorophenyl)-4,4-dimethylcyclohex-1-en-1-yl]methyl}piperazin-1-yl)-2-(1H-indol-5-yloxy)-N-({3-nitro-4-[(1-tetrahydro-2H-pyran-4-ylpiperidin-4-yl)amino]phenyl}sulfonyl)benzamide] | 0.108 nM | 22.1 nM | > 50000 nM | 11 nM
COc1ccc(C2=C(CN3CCN(c4ccc(C(=O)NS(=O)(=O)c5ccc(NCCCN6CCCC6)c([N+](=O)[O-])c5)c(Oc5cccc6[nH]ccc56)c4)CC3)CCC(C)(C)C2)cc1 [Example 68, 2-(1H-indol-4-yloxy)-4-(4-{[2-(4-methoxyphenyl)-4,4-dimethylcyclohex-1-en-1-yl]methyl}piperazin-1-yl)-N-({3-nitro-4-[(3-pyrrolidin-1-ylpropyl)amino]phenyl}sulfonyl)benzamide] | 1.23 nM | 14 nM | > 50000 nM | 44 nM
CC(C)N(CCOc1ccc(-c2ccc(Cl)cc2)c(CN2CCN(c3ccc(C(=O)NS(=O)(=O)c4ccc(NCC5CCOCC5)c([N+](=O)[O-])c4)c(Oc4ccccc4)c3)CC2)c1)C(C)C [Example 139, 4-[4-({4′-chloro-4-[2-(diisopropylamino)ethoxy]-1,1′-biphenyl-2-yl}methyl)piperazin-1-yl]-N-({3-nitro-4-[(tetrahydro-2H-pyran-4-ylmethyl)amino]phenyl}sulfonyl)-2-phenoxybenzamide] | 0.101 nM | 10.4 nM | 38500 nM | 46 nM
CN(C)CCCNc1ccc(S(=O)(=O)NC(=O)c2ccc(N3CCN(Cc4ccccc4-c4ccc(Cl)cc4)CC3)cc2Oc2ccccc2)cc1[N+](=O)[O-] [Example 154, 4-{4-[(4′-chloro-1,1′-biphenyl-2-yl)methyl]piperazin-1-yl}-N-[(4-{[3-(dimethylamino)propyl]amino}-3-nitrophenyl)sulfonyl]-2-phenoxybenzamide] | 0.133 nM | 5.38 nM | 29000 nM | 85 nM
